These results are taken from patent US9155696B2, “Pharmaceutical compositions” (Novartis AG, priority 2008, dated 2015).

For the data set, the system named is erythrocytes of female and male blood donor. Nature of the data set: Hemolysis study of solvents. It counts as cell-based. The following applies: for Hemolysis [%]: female and male blood donor (n = 4). Here is the method: To outline the suitability of PEG500DME as a solvent for parenteral use, a hemolysis study was performed: […]
The mark [1] stands for this setting: dilution 1:2 with 0.9% NaCl solution.
Setting [2] is: dilution 1:4 with 0.9% NaCl solution.
Where [3] appears, read: dilution 1:8 with 0.9% NaCl solution.
The mark [4] stands for this setting: dilution 1:16 with 0.9% NaCl solution.
Setting [5] is: dilution 1:32 with 0.9% NaCl solution.
[6] abbreviates: dilution 1:64 with 0.9% NaCl solution.
[7] abbreviates: dilution 1:128 with 0.9% NaCl solution.

As for `CN1CCCC1=O` [NMP, 1-methyl-2-pyrrolidinone], the “Hemolysis [%] in donor one” value by setting is: (dilution 0 (pure solvent)) 28%; under setting [1], 0%; under setting [2], 0%; under setting [3], 0%; under setting [4], 0%; under setting [5], 0%. Also, the “Hemolysis [%] in donor one” value is, setting by setting: under setting [6], 0%; under setting [7], 0%. The “Hemolysis [%] in donor two” value reads like this: (dilution 0 (pure solvent)) 54%; under setting [1], 10%; under setting [2], 1%; under setting [3], 1%; under setting [4], 1%; under setting [5], 1%. For the same molecule, the “Hemolysis [%] in donor two” value turned out to be 1% under setting [6] and 1% under setting [7]. Further, the “Hemolysis [%]” value under setting [1] amounted to 7.8 ± 5.6%; the “Hemolysis [%]” value under setting [2] worked out at 0.5 ± 0.6%; the “Hemolysis [%]” value under setting [3] is reported as 0.3 ± 0.5%; the “Hemolysis [%]” value under setting [4] stood at 0.3 ± 0.5%; the “Hemolysis [%]” value under setting [5] was 0.3 ± 0.5%; the “Hemolysis [%]” value under setting [6] is reported as 0.3 ± 0.5%. Further, the “Hemolysis [%]” value under setting [7] was 0.3 ± 0.5%.
